Data: PMC11345841, “Exploring 2-Sulfonylpyrimidine Warheads as Acrylamide Surrogates for Targeted Covalent Inhibition: A BTK Story” (Journal of Medicinal Chemistry, 2024)
Like-named read-outs stand apart in the source and are kept apart here.

Experiments:
Experiment in all cases: KINOMEscan ScanTK
Assay type in all cases: binding
[1] = biological target: T1, BLK (Homo sapiens, UniProt P51451); details: BLK; for difference in %Control vs reference Ib at 1 µM: read-out: % difference (compound - Ib %Control)
T1 construct: purchased Eurofins DiscoverX KINOMEscan (scanTK)
T1 sequence (P51451 whole entry): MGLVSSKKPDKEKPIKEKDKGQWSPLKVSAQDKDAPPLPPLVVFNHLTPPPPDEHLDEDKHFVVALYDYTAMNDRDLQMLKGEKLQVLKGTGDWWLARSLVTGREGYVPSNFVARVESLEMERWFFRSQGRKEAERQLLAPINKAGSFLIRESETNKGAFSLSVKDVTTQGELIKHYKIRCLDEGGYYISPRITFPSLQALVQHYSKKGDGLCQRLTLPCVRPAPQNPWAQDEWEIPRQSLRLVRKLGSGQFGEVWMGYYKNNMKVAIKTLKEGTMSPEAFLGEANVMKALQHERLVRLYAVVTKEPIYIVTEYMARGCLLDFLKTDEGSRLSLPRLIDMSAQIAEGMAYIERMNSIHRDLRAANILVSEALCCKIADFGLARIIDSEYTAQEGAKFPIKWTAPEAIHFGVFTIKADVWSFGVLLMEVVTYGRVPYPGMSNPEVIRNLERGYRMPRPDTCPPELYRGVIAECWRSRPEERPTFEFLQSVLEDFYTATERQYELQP

[2] = biological target: T2, CTK (Homo sapiens, UniProt P42679)
T2 construct: purchased Eurofins DiscoverX KINOMEscan (scanTK)
T2 sequence (P42679 1-507): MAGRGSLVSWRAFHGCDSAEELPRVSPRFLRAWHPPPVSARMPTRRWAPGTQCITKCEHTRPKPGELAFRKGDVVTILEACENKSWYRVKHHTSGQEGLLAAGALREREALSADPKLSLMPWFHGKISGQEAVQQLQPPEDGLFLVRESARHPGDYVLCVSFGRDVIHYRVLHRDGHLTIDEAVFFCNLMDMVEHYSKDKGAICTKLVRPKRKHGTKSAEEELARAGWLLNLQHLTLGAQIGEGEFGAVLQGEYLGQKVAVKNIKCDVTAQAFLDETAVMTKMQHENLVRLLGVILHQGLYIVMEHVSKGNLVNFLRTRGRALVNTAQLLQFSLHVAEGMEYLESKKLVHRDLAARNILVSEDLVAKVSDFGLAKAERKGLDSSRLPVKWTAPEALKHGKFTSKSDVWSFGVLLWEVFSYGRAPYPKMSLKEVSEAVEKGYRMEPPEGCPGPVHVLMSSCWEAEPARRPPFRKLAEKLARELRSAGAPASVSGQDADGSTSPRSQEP

[3] = biological target: T3, ERBB4 (Homo sapiens, UniProt Q15303)
T3 construct: purchased Eurofins DiscoverX KINOMEscan (scanTK)
T3 sequence (Q15303 26-1308): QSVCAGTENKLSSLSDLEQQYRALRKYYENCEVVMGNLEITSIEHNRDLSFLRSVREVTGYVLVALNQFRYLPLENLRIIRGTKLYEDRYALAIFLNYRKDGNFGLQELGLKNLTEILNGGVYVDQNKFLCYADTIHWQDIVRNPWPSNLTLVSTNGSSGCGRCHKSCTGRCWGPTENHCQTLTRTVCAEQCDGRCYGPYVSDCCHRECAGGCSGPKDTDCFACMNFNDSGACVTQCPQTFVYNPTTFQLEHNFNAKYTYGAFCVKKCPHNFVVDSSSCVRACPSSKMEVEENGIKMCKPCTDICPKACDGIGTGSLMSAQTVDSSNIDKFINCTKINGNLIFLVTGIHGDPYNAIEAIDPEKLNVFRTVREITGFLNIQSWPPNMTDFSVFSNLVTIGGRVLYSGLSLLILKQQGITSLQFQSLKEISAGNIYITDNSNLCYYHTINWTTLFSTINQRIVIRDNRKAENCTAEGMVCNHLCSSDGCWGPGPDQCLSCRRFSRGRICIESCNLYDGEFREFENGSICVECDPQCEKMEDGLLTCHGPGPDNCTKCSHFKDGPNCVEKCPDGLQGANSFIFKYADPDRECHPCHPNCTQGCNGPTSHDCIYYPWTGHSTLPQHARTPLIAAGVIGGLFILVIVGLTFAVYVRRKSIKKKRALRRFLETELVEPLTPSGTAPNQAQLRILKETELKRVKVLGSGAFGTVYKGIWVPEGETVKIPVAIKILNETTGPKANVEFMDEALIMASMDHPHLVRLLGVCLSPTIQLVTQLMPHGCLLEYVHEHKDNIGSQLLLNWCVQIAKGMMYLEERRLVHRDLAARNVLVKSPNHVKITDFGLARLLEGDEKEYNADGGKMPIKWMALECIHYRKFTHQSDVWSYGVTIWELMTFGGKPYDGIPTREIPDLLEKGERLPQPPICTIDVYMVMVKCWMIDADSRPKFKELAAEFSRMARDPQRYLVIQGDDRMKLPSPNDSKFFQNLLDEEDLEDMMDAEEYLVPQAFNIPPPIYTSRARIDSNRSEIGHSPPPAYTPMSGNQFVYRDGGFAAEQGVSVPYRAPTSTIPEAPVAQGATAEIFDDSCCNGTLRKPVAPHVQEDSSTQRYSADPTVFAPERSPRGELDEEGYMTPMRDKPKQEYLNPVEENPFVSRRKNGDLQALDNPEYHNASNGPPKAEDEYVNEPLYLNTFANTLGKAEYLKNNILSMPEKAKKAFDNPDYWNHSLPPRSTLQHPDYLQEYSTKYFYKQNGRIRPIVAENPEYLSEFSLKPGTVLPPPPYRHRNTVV

[4] = biological target: T4, FER (Homo sapiens, UniProt P16591)
T4 construct: purchased Eurofins DiscoverX KINOMEscan (scanTK)
T4 sequence (P16591 whole entry): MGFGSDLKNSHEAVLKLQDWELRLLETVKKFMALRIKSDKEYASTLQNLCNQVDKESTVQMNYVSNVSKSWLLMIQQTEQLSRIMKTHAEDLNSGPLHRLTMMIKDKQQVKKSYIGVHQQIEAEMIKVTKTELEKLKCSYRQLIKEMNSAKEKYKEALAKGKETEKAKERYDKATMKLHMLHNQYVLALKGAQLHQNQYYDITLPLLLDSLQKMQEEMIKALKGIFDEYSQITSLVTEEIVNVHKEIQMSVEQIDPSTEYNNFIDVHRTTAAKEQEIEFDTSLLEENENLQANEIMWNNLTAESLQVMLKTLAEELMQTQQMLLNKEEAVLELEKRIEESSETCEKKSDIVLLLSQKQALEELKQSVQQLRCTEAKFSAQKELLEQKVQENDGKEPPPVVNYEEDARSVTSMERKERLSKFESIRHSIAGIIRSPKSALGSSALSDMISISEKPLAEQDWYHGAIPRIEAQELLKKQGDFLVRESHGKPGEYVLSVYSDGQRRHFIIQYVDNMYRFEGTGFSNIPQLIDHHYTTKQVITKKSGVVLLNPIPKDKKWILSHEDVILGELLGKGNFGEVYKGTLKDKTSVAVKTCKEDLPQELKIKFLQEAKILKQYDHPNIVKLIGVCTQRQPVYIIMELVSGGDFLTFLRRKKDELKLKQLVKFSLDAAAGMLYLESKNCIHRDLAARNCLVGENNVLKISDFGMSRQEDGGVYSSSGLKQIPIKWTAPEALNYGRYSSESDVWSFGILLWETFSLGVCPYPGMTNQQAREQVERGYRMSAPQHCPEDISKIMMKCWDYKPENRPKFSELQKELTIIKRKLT

[5] = biological target: T5, FGFR3 (Homo sapiens, UniProt P22607)
T5 construct: purchased Eurofins DiscoverX KINOMEscan (scanTK)
T5 sequence (P22607 23-806): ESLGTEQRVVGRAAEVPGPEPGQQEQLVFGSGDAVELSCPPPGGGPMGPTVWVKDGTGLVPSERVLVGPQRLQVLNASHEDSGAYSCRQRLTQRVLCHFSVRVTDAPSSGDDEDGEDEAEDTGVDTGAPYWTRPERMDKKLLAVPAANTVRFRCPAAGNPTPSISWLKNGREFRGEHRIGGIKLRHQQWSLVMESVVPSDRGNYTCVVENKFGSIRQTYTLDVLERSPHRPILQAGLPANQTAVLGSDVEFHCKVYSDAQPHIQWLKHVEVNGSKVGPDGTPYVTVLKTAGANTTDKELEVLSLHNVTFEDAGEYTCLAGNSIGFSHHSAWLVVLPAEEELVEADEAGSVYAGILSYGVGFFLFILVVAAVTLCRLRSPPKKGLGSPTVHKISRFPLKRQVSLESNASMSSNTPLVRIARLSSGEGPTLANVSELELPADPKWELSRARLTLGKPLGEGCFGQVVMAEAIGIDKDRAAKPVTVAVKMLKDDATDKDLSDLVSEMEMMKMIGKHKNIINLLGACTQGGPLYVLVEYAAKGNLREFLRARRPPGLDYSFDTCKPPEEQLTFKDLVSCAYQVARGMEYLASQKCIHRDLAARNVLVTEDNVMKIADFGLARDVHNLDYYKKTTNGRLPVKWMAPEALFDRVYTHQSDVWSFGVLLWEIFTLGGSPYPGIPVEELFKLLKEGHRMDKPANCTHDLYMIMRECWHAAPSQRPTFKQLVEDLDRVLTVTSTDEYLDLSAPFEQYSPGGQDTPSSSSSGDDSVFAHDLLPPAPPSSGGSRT

[6] = biological target: T6, FLT3(K663Q) (Homo sapiens, UniProt P36888, K663Q)
T6 construct: purchased Eurofins DiscoverX KINOMEscan (scanTK)
T6 sequence (P36888 27-993 K663Q): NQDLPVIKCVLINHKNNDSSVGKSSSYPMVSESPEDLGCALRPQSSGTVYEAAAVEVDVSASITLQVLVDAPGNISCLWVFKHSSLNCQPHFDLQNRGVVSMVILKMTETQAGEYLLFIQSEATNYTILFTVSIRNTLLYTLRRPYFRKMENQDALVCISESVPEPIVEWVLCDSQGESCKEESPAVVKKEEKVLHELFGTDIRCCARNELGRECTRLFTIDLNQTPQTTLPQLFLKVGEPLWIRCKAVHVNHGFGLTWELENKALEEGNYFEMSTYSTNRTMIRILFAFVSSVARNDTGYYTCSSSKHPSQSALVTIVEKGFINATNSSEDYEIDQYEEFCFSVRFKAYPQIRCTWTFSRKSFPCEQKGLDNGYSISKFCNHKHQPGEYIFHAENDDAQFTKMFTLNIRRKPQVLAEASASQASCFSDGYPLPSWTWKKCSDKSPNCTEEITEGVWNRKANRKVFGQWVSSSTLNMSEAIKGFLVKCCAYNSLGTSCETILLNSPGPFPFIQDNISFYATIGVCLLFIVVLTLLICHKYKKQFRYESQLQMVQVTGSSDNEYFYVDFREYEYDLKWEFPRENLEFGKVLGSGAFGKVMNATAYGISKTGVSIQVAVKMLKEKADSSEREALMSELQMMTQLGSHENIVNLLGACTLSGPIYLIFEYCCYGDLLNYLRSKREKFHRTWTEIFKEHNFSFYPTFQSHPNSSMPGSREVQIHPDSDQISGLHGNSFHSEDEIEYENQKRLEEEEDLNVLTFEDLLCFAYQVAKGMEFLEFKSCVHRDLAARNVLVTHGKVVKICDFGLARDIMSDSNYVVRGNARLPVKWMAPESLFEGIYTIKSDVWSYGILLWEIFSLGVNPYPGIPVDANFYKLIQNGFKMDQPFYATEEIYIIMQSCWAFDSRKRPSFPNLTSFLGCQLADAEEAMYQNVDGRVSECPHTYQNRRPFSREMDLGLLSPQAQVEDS

[7] = biological target: T7, MET(M1250T) (Homo sapiens, UniProt P08581, M1250T)
T7 construct: purchased Eurofins DiscoverX KINOMEscan (scanTK)
T7 sequence (P08581 25-1390 M1250T): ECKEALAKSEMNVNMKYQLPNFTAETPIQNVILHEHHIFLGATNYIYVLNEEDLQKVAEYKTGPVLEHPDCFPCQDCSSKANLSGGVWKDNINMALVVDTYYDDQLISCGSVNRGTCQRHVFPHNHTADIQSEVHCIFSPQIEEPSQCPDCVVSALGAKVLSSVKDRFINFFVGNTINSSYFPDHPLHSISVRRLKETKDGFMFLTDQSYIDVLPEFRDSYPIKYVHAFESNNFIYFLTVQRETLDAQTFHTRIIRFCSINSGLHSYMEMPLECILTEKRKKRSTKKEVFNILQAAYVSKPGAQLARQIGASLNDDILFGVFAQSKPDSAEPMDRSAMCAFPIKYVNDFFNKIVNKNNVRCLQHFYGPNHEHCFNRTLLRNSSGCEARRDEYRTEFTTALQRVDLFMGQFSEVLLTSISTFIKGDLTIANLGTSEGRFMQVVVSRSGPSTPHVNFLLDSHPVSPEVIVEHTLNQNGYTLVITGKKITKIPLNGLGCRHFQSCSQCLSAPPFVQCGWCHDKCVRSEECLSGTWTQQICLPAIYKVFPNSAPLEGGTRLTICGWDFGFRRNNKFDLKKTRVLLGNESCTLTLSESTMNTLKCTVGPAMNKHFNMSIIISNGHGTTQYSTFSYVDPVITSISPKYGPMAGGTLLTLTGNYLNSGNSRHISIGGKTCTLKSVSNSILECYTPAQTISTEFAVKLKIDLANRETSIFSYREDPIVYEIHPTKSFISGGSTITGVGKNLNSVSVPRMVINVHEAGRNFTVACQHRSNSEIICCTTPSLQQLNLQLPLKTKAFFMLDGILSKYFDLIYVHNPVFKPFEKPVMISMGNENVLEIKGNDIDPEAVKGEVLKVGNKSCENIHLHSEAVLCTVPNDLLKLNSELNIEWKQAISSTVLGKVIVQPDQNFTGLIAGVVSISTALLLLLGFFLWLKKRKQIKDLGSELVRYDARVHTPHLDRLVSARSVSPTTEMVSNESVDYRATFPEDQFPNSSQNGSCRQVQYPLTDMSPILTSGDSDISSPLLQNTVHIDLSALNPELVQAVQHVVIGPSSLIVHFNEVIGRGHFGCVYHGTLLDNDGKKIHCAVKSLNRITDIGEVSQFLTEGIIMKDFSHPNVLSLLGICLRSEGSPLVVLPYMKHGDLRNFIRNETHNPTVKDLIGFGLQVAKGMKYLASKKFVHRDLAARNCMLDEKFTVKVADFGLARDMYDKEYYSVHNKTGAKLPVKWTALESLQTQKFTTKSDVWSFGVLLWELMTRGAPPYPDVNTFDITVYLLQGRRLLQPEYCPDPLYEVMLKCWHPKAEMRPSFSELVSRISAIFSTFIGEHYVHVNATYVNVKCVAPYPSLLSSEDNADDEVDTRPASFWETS

[8] = biological target: T8, TRKB (Homo sapiens, UniProt Q16620); details: TRKB
T8 construct: purchased Eurofins DiscoverX KINOMEscan (scanTK)

Row | Compound | difference in %Control vs reference Ib at 1 µM ([1]; @1000nM) [%] | remaining binding at 1 µM ([1]; @1000nM, read-out: %Control) [%] | remaining binding at 1 µM ([1]; read-out: %Control @1000nM) [%] | difference in %Control versus compound Ib at 1 µM ([2]; @1000nM) [%] | remaining binding at 1 µM ([2]; @1000nM, read-out: %Control) [%] | remaining binding at 1 µM ([2]; read-out: %Control @1000nM) [%] | difference in %Control versus compound Ib at 1 µM ([3]; @1000nM) [%] | remaining binding at 1 µM ([3]; @1000nM, read-out: %Control) [%] | remaining binding at 1 µM ([3]; read-out: %Control @1000nM) [%] | difference in %Control versus compound Ib at 1 µM ([4]; @1000nM) [%] | remaining binding at 1 µM ([4]; @1000nM, read-out: %Control) [%] | remaining binding at 1 µM ([4]; read-out: %Control @1000nM) [%] | difference in %Control versus compound Ib at 1 µM ([5]; @1000nM) [%] | remaining binding at 1 µM ([5]; @1000nM, read-out: %Control) [%] | remaining binding at 1 µM ([5]; read-out: %Control @1000nM) [%] | difference in %Control from compound Ib at 1 µM ([6]; @1000nM) [%] | remaining binding at 1 µM ([6]; @1000nM, read-out: %Control) [%] | remaining binding at 1 µM ([6]; read-out: %Control @1000nM) [%] | remaining binding at 1 µM ([7]; @1000nM, read-out: %Control) [%] | remaining binding at 1 µM ([7]; read-out: %Control @1000nM) [%] | also measured
1 | COC(=O)c1cnc(S(C)(=O)=O)nc1N1CCCC(n2nc(-c3ccc(Oc4ccccc4)cc3)c3c(N)ncnc32)C1 (stereo not drawn) [Compound 8b, Methyl 4-(3-(4-Amino-3-(4-phenoxyphenyl)-1H-pyrazolo[3,4-d]pyrimidin-1-yl)piperidin-1-yl)-2-(methylsulfonyl)pyrimidine-5-carboxylate] | 0.35 | 0.4 | 0.4 | 8 | 88 | 88 | 0.5 | 0.55 | 0.55 | -10 | 90 | 90 | 47 | 95 | 95 | 29 | 73 | 73 | 96 | 96 | difference in %Control versus compound Ib at 1 µM ([8]; @1000nM): 7%; remaining binding at 1 µM ([8]; @1000nM, read-out: %Control): 99%; remaining binding at 1 µM ([8]; read-out: %Control @1000nM): 99%
2 | CCOC(=O)c1cnc(S(C)(=O)=O)nc1N1CCC[C@@H](n2nc(-c3ccc(Oc4ccccc4)cc3)c3c(N)ncnc32)C1 [Compound 8c, Ethyl (R)-4-(3-(4-Amino-3-(4-phenoxyphenyl)-1H-pyrazolo[3,4-d]pyrimidin-1-yl)piperidin-1-yl)-2-(methylsulfonyl)pyrimidine-5-carboxylate] | 0.15 | 0.2 | 0.2 | -6 | 74 | 74 | 5.15 | 5.2 | 5.2 | 0 | 100 | 100 | 48 | 96 | 96 | 56 | 100 | 100 | 96 | 96 | difference in %Control versus compound Ib at 1 µM ([8]; @1000nM): -15%; remaining binding at 1 µM ([8]; @1000nM, read-out: %Control): 77%; remaining binding at 1 µM ([8]; read-out: %Control @1000nM): 77%
3 | CNC(=O)c1cnc(S(C)(=O)=O)nc1N1CCCC(n2nc(-c3ccc(Oc4ccccc4)cc3)c3c(N)ncnc32)C1 (stereo not drawn) [Compound 8d, 4-(3-(4-Amino-3-(4-phenoxyphenyl)-1H-pyrazolo[3,4-d]pyrimidin-1-yl)piperidin-1-yl)-N-methyl-2-(methylsulfonyl)pyrimidine-5-carboxamide] | -0.05 | 0 | 0 | -3 | 77 | 77 | 0.05 | 0.1 | 0.1 | 0 | 100 | 100 | 51 | 99 | 99 | 36 | 80 | 80 | 100 | 100 | difference in %Control versus compound Ib at 1 µM ([8]; @1000nM): -5%; remaining binding at 1 µM ([8]; @1000nM, read-out: %Control): 87%; remaining binding at 1 µM ([8]; read-out: %Control @1000nM): 87%
